Experimental data reported in patent publication US8188135B2, “Compounds as cannabinoid receptor ligands” (priority 2008, dated 2012).
Where “and” joins values, the source holds several entries; their conditions need not be identical. Identical values can stand only once. Like-named read-outs stand apart in the source and are kept apart here.

Key:
rat CB2 [1] = molecular target: T1, rat CB2 (Rattus norvegicus, UniProt Q9QZN9); test: rat CB2 radioligand binding assay ([3H]CP 55,940 competition); set-up: expressed in transfected cells; host or cells: HEK293; conditions: HEK293 membranes, 0.5 nM [3H]CP 55,940
T1 sequence (Q9QZN9 1-360): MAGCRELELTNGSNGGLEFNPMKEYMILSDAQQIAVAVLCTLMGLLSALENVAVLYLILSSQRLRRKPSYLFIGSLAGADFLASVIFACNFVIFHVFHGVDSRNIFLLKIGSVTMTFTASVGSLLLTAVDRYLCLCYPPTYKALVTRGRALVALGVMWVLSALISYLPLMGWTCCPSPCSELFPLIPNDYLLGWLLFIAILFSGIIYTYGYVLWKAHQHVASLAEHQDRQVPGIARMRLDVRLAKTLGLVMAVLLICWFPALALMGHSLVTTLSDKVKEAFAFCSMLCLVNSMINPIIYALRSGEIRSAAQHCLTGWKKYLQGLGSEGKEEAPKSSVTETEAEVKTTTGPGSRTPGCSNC
How it was run: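 Membranes (20 μg protein/well) from HEK293 cells stably expressing the receptor were incubated 45 min at 30 °C with 0.5 nM [3H]CP 55,940 and five concentrations of test compound (0.01 nM–10 μM) in Tris/EDTA/MgCl2/BSA buffer, pH 7.4. Bound ligand was measured by GF/C filtration and scintillation counting; 10 μM CP 55,940 defined nonspecific binding.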

Rat CB1 = molecular target: T2, Rat CB1 (Rattus norvegicus, UniProt P20272); test: rat CB1 cyclase functional assay (HitHunter cAMP); assay type: cell-based; conditions: HEK cells, forskolin 37 μM
T2 construct: expressed in transfected cells; host or cells: HEK
T2 sequence (P20272 whole entry): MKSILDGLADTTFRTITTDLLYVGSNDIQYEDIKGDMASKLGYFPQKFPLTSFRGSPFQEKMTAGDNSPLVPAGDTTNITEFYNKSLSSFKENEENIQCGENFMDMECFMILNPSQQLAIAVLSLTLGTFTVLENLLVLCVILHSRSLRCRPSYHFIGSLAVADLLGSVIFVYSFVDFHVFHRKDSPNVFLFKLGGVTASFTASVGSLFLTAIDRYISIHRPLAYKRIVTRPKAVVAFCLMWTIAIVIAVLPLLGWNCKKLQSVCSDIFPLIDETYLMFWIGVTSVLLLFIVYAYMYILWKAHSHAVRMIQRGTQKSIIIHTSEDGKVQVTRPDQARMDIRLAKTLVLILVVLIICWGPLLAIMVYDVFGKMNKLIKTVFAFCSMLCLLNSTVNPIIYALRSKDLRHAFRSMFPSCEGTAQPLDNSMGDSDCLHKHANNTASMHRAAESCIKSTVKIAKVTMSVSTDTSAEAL
Protocol: (§1) The cyclase functional assays were performed using the HitHunter™ cAMP assay kit from DiscoveRx (Fremont, Calif.) according to vendor's protocol. Briefly, HEK cells expressing CB2 or CB1 receptors (rat or human) were detached using cell dissociation buffer (Invitrogen, Carlsbad, Calif.), dispersed and placed in suspension at 10,000 cells per well in 96 well plates prior to the assay. Cell suspensions were incubated at 37° C. for 20 min with variable concentrations of test ligands and or 10 μM CP 55,940-positive control in the presence of a fixed concentration of forskolin (18 μM for rat CB2 and 37 μM for rat CB1) in Dulbescco's phosphate-buffered saline (Invitrogen, Carlsbad, Calif.) supplemented with bovine serum albumin (0.01% final concentration). The reactions were terminated by the addition of lysis buffer and the luminescence was detected following the procedure according to the manufacturer's instructions. EC50 values were calculated using sigmoidal dose-response curve fitting from Prism (GraphPad).

rat CB2 [2] = molecular target: T1, rat CB2; test: rat CB2 cyclase functional assay (HitHunter cAMP); assay type: cell-based; set-up: expressed in transfected cells; host or cells: HEK; conditions: rat CB2 cyclase (EC50, nM), HEK cells, forskolin 18 μM
Protocol: as §1

human CB2 receptors = molecular target: T3, human CB2 receptors (Homo sapiens, UniProt P34972); test: human CB2 radioligand binding assay ([3H]CP 55,940 competition); conditions: HEK293 membranes, 0.5 nM [3H]CP 55,940
T3 construct: expressed in transfected cells; host or cells: HEK293
T3 sequence (P34972 whole entry): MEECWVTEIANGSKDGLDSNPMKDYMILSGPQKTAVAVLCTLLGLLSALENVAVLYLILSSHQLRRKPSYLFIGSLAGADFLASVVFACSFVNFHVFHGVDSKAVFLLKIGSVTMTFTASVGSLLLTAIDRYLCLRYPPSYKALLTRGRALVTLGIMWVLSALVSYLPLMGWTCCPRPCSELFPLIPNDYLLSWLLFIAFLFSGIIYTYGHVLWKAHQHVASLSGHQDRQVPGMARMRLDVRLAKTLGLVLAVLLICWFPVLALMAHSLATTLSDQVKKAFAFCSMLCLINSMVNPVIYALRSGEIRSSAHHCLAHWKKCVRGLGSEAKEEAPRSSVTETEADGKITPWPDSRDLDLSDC
How it was run: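 Membranes from HEK293 cells stably expressing human CB2 (5 μg protein/well) competed against 0.5 nM [3H]CP 55,940 with five concentrations of test ligand (0.01 nM to 10 μM), pH 7.4 Tris buffer with BSA, 90 min at 30 °C. Filtration and scintillation counting; nonspecific binding with 10 μM unlabeled CP 55,940.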

[3] = pharmacokinetic studies in rats; conditions: male, Sprague-Dawley, rat; for half-life: in vivo, 3 micromole/kg; for half-life / clearance: iv; for bioavailability: po
Protocol: Male Sprague-Dawley rats, weighing 250-400 g, were obtained from Charles Rivers Laboratories. Pharmacokinetic studies were conducted in three groups of rats; each group contained three animals. All groups were dosed with a solution formulation. The first group of three rats received an intravenous dose, administered under isoflurane anesthetic. The second group received an intraperitoneal dose and the third group received an oral dose, administered by gavage. Sequential blood samples were obtained from a tail vein of each animal for 8-24 hours after dosing. Plasma was separated by centrifugation and stored frozen until analysis.
Half life […] and plasma clearance values are based on intravenous administration (3 micromole/kg).
Half life (t1/2) and plasma clearance values are based on intravenous administration (3 micromole/kg).

[4] = read-out: Rat CB1 cyclase (EC50)

With `CC1CCC(COc2ccc(C(F)(F)F)cc2C(=O)N=c2cc(C(C)(C)C)n(C)n2CC2CCCO2)O1` (single isomer, unassigned) [Example 36] the Ki (rat CB2 [1]; rat CB2 (Ki, nM)) was 108 nM, the EC50 (Rat CB1; Rat CB1 cyclase (EC50, nM)) was 8410 nM and the EC50 (rat CB2 [2]) was 2.7 nM. For the same compound, the Ki (human CB2 receptors; human CB2 (Ki, nM)) was 74 nM.
`CC1CCC(COc2ccc(C(F)(F)F)cc2C(=O)N=c2cc(C(C)(C)C)n(C)n2CC2CCCO2)O1` (single isomer, unassigned) [Example 37] gave a Ki (rat CB2 [1]; rat CB2 (Ki, nM)) of 16 nM, an EC50 (Rat CB1; Rat CB1 cyclase (EC50, nM)) of 8590 nM and an EC50 (rat CB2 [2]) of 0.45 nM. It also gave a Ki (human CB2 receptors; human CB2 (Ki, nM)) of 57 nM.
Compound `Cn1c(C(C)(C)C)c/c(=N\C(=O)c2cc(C(F)(F)F)ccc2OC[C@H]2CCCO2)n1C[C@H]1CCCO1` [Example 1, N-{(3E)-5-tert-butyl-1-methyl-2-[(2R)-tetrahydrofuran-2-ylmethyl]-1,2-dihydro-3H-pyrazol-3-ylidene}-2-[(2R)-tetrahydrofuran-2-ylmethoxy]-5-(trifluoromethyl)benzamide] has a Ki (rat CB2 [1]; rat CB2 (Ki, nM)) of 23 nM, an EC50 (Rat CB1; Rat CB1 cyclase (EC50, nM)) of 5510 nM and an EC50 (rat CB2 [2]) of 1.1 nM. For the same compound, the Ki (human CB2 receptors; human CB2 (Ki, nM)) was 51 nM.
`Cn1c(C(C)(C)C)c/c(=N\C(=O)c2cc(C(F)(F)F)ccc2OC[C@@H]2CCN2)n1C[C@H]1CCCO1` [Example 2, 2-[(2S)-azetidin-2-ylmethoxy]-N-{(3E)-5-tert-butyl-1-methyl-2-[(2R)-tetrahydrofuran-2-ylmethyl]-1,2-dihydro-3H-pyrazol-3-ylidene}-5-(trifluoromethyl)benzamide] showed a Ki (rat CB2 [1]; rat CB2 (Ki, nM)) of 195 nM, an EC50 (Rat CB1; Rat CB1 cyclase (EC50, nM)) of 11200 nM and an EC50 (rat CB2 [2]) of 0.77 nM. For the same compound, the Ki (human CB2 receptors; human CB2 (Ki, nM)) was over 1000 nM.
With `Cn1c(C(C)(C)C)c/c(=N\C(=O)c2cc(C(F)(F)F)ccc2OCC2CCS(=O)(=O)C2)n1C[C@H]1CCCO1` (stereo partly drawn) [Example 6, N-{(3E)-5-tert-butyl-1-methyl-2-[(2R)-tetrahydrofuran-2-ylmethyl]-1,2-dihydro-3H-pyrazol-3-ylidene}-2-[(1,1-dioxidotetrahydrothien-3-yl)methoxy]-5-(trifluoromethyl)benzamide] the Ki (rat CB2 [1]; rat CB2 (Ki, nM)) was 78 nM, the EC50 (Rat CB1; Rat CB1 cyclase (EC50, nM)) was 11200 nM and the EC50 (rat CB2 [2]) was 7.5 nM. It also gave a Ki (human CB2 receptors; human CB2 (Ki, nM)) of 203 nM.
With `CCCCn1nc(C(C)(C)C)s/c1=N\C(=O)c1cc(C(F)(F)F)ccc1OCC1CCCCN1C` (stereo not shown) [Example 7, N-[(2Z)-3-butyl-5-tert-butyl-1,3,4-thiadiazol-2(3H)-ylidene]-2-[(1-methylpiperidin-2-yl)methoxy]-5-(trifluoromethyl)benzamide] the Ki (rat CB2 [1]; rat CB2 (Ki, nM)) was 2.5 nM, the EC50 (Rat CB1; Rat CB1 cyclase (EC50, nM)) was 1060 nM and the EC50 (rat CB2 [2]) was 2.9 nM. The Ki (human CB2 receptors; human CB2 (Ki, nM)) was 2.5 nM.
`Cn1c(C(C)(C)C)c/c(=N\C(=O)c2cc(C(F)(F)F)ccc2OC[C@@H]2CCCO2)n1C[C@H]1CCCO1` [Example 8, N-{(3E)-5-tert-butyl-1-methyl-2-[(2R)-tetrahydrofuran-2-ylmethyl]-1,2-dihydro-3H-pyrazol-3-ylidene}-2-[(2S)-tetrahydrofuran-2-ylmethoxy]-5-(trifluoromethyl)benzamide] gave a Ki (rat CB2 [1]; rat CB2 (Ki, nM)) of 4.3 nM, an EC50 (Rat CB1; Rat CB1 cyclase (EC50, nM)) of 6340 nM and an EC50 (rat CB2 [2]) of 0.59 nM. The Ki (human CB2 receptors; human CB2 (Ki, nM)) was 13 nM.
In the case of `CN1CCC[C@H]1COc1ccc(C(F)(F)F)cc1C(=O)/N=c1\sc(C(C)(C)C)nn1C[C@H]1CCCO1` [Example 69, N-[(2Z)-5-tert-butyl-3-[(2R)-tetrahydrofuran-2-ylmethyl]-1,3,4-thiadiazol-2(3 H)-ylidene]-2-{[(2S)-1-methylpyrrolidin-2-yl]methoxy}-5-(trifluoromethyl)benzamide], the Ki (rat CB2 [1]; rat CB2 (Ki, nM)) is reported as 19 nM and 5 nM, the EC50 (rat CB2 [2]) is reported as 0.93 nM and 0.16 nM and the Ki (human CB2 receptors; human CB2 (Ki, nM)) is reported as 10 nM and 14 nM.
For `Cn1c(C(C)(C)C)c/c(=N\C(=O)c2cc(C(F)(F)F)ccc2OCC(C)(C)O)n1CC1CC1` [Example 71, N-[(3E)-5-tert-butyl-2-(cyclopropylmethyl)-1-methyl-1,2-dihydro-3H-pyrazol-3-ylidene]-2-(2-hydroxy-2-methylpropoxy)-5-(trifluoromethyl)benzamide], the Ki (rat CB2 [1]; rat CB2 (Ki, nM)) was 8.5 nM, the EC50 (Rat CB1; Rat CB1 cyclase (EC50, nM)) was 4280 nM and the half-life [3] was 282 min. For the same compound, the clearance [3] was 5 mL/min/kg, the bioavailability [3] was 46% and the Ki (human CB2 receptors; human CB2 (Ki, nM)) was 38 nM.
With `CCCCn1cc(C(C)(C)C)o/c1=N\C(=O)c1cc(C(F)(F)F)ccc1OC[C@@H]1CCCN1C` [Example 76, N-[(2Z)-3-butyl-5-tert-butyl-1,3-oxazol-2(3H)-ylidene]-2-{[(2S)-1-methylpyrrolidin-2-yl]methoxy}-5-(trifluoromethyl)benzamide] the Ki (rat CB2 [1]; read-out: rat CB2 (Ki)) was 243 nM, the EC50 (Rat CB1; [4]) was 2030 nM and the Ki (human CB2 receptors; read-out: human CB2 (Ki)) was 176 nM.
`C[C@@H](O)COc1ccc(C(F)(F)F)cc1C(=O)/N=c1\cc(C(C)(C)C)n(C)n1C[C@H]1CCCO1` [Example 91, N-{(3E)-5-tert-butyl-1-methyl-2-[(2R)-tetrahydrofuran-2-ylmethyl]-1,2-dihydro-3 H-pyrazol-3-ylidene}-2-{[(2R)-2-hydroxypropyl]oxy}-5-(trifluoromethyl)benzamide] showed a Ki (rat CB2 [1]; rat CB2 (Ki, nM)) of 18 nM, an EC50 (Rat CB1; [4]) of over 27000 nM and a half-life [3] of 150 min. It also gave a clearance [3] of 31.7 mL/min/kg, a bioavailability [3] of 33% and a Ki (human CB2 receptors; human CB2 (Ki, nM)) of 38 nM.
`Cn1c(C(C)(C)C)c/c(=N\C(=O)c2cc(C#N)ccc2OCC(C)(C)O)n1CC1CCC1` [Example 113, N-[(3E)-5-tert-butyl-2-(cyclobutylmethyl)-1-methyl-1,2-dihydro-3H-pyrazol-3-ylidene]-5-cyano-2-(2-hydroxy-2-methylpropoxy)benzamide] showed a Ki (rat CB2 [1]; rat CB2 (Ki, nM)) of 28 nM, an EC50 (Rat CB1; [4]) of over 27000 nM and a half-life [3] of 204 min. It also gave a clearance [3] of 20 mL/min/kg, a bioavailability [3] of 100% and a Ki (human CB2 receptors; human CB2 (Ki, nM)) of 54 nM.
Work on `CCCCCn1/c(=N/C(=O)c2cc(C#N)ccc2OCC(C)(C)O)cc(C(C)(C)C)n1C` [Example 115, N-[(3E)-5-tert-butyl-1-methyl-2-pentyl-1,2-dihydro-3H-pyrazol-3-ylidene]-5-cyano-2-(2-hydroxy-2-methylpropoxy)benzamide] yielded a Ki (rat CB2 [1]; rat CB2 (Ki, nM)) of 17 nM, an EC50 (Rat CB1; [4]) of over 27000 nM and a half-life [3] of 36 min. For the same compound, the clearance [3] was 30 mL/min/kg, the bioavailability [3] was 7% and the Ki (human CB2 receptors; human CB2 (Ki, nM)) was 81 nM.
`Cn1c(C(C)(C)C)c/c(=N\C(=O)c2cc(C(F)(F)F)ccc2OC[C@@H]2CCC(=O)N2)n1CC1CCC1` [Example 120, N-[(3E)-5-tert-butyl-2-(cyclobutylmethyl)-1-methyl-1,2-dihydro-3H-pyrazol-3-ylidene]-2-{[(2S)-5-oxopyrrolidin-2-yl]methoxy}-5-(trifluoromethyl)benzamide] gave a Ki (rat CB2 [1]; rat CB2 (Ki, nM)) of 61 nM, an EC50 (Rat CB1; [4]) of over 27000 nM and a Ki (human CB2 receptors; read-out: human CB2 (Ki)) of 116 nM.
`Cn1c(C(C)(C)C)c/c(=N\C(=O)c2cc([N+](=O)[O-])ccc2OCC(C)(C)O)n1C[C@H]1CCCO1` [Example 121, N-{(3E)-5-tert-butyl-1-methyl-2-[(2R)-tetrahydrofuran-2-ylmethyl]-1,2-dihydro-3H-pyrazol-3-ylidene}-2-(2-hydroxy-2-methylpropoxy)-5-nitrobenzamide] gave a Ki (rat CB2 [1]; rat CB2 (Ki, nM)) of 7.7 nM, an EC50 (Rat CB1; [4]) of 4710 nM and a Ki (human CB2 receptors; human CB2 (Ki, nM)) of 13 nM.
In the case of `Cn1c(C(C)(C)C)c/c(=N\C(=O)c2cc(C(F)(F)F)ccc2OCC(C)(C)C(=O)O)n1C[C@H]1CCCO1` [Example 124, 3-[2-[({(3E)-5-tert-butyl-1-methyl-2-[(2R)-tetrahydrofuran-2-ylmethyl]-1,2-dihydro-3H-pyrazol-3-ylidene}amino)carbonyl]-4-(trifluoromethyl)phenoxy]-2,2-dimethylpropanoic acid], the Ki (rat CB2 [1]; rat CB2 (Ki, nM)) is reported as 43 nM, the EC50 (Rat CB1; [4]) is reported as over 27000 nM and the Ki (human CB2 receptors; read-out: human CB2 (Ki)) is reported as 185 nM.
